Reference: the supplement of paper PMC11061612

Legend:
AZD8186 = compound: C[C@@H](Nc1cc(F)cc(F)c1)c1cc(C(=O)N(C)C)cc2c(=O)cc(N3CCOCC3)oc12 [AZD8186]; details: max 3 µM
Summary of the method: (§1)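 Following 24 hours at 37°C and 5% CO2, cancer cell lines in 1536-well plates with 7.5 μl DMEM/F12 or RPMI and 10% FBS were dosed for 72 hours, final DMSO typically being 0.2%. CellTiter-Glo 2.0 luminescence, scaled between blank-well and DMSO-well means, gave the viability readout. Dose responses were fitted to a two-parameter logistic curve with a non-linear mixed effects model, and the single-agent IC50 was derived from this fit.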

Savolitinib = compound: C[C@@H](c1ccc2nccn2c1)n1nnc2ncc(-c3cnn(C)c3)nc21 [Savolitinib]; details: max 1 µM
Summary of the method: as §1

Prexasertib = compound: COc1cccc(OCCCN)c1-c1cc(Nc2cnc(C#N)cn2)n[nH]1 [Prexasertib]; details: max 1 µM
Summary of the method: as §1

AZD2811 = compound: CCN(CCO)CCCOc1ccc2c(Nc3cc(CC(=O)Nc4cccc(F)c4)[nH]n3)ncnc2c1 [AZD2811]; details: max 1 µM
Summary of the method: as §1

AZD5991 = compound: Cc1c2c(nn1C)CSCc1cc(n(C)n1)CSc1cc(c3ccccc3c1)OCCCc1c(C(=O)O)n(C)c3c-2c(Cl)ccc13 [AZD5991]; details: max 1 µM
Summary of the method: as §1

Selumetinib = compound: Cn1cnc2c(F)c(Nc3ccc(Br)cc3Cl)c(C(=O)NOCCO)cc21 [Selumetinib]
Summary of the method: as §1

SG3199 = compound: CC1=CN2[C@@H](C1)C=NC3=CC(=C(C=C3C2=O)OC)OCCCCCOC4=C(C=C5C(=C4)N=C[C@@H]6CC(=CN6C5=O)C)OC [SG3199]; details: max 0.001 µM
Summary of the method: as §1

Crizotinib = compound: C[C@@H](Oc1cc(-c2cnn(C3CCNCC3)c2)cnc1N)c1c(Cl)ccc(F)c1Cl [Crizotinib]; details: max 10 µM
Summary of the method: as §1

AZD1390 = compound: CC(C)n1c(=O)n(C)c2cnc3cc(F)c(-c4ccc(OCCCN5CCCCC5)nc4)cc3c21 [AZD1390]; details: max 0.3 µM
Summary of the method: as §1

Gefitinib = compound: COc1cc2ncnc(Nc3ccc(F)c(Cl)c3)c2cc1OCCCN1CCOCC1 [Gefitinib]; details: max 10 µM
Summary of the method: as §1

SN-38 = compound: CCc1c2c(nc3ccc(O)cc13)-c1cc3c(c(=O)n1C2)COC(=O)[C@]3(O)CC [SN-38]; details: max 0.3 µM
Summary of the method: as §1

AZD5153 = compound: COc1nnc2ccc(N3CCC(c4ccc(OCCN5CCN(C)C(=O)[C@H]5C)cc4)CC3)nn12 [AZD5153]; details: max 1 µM
Summary of the method: as §1

Trametinib = compound: CC(=O)Nc1cccc(-n2c(=O)n(C3CC3)c(=O)c3c(Nc4ccc(I)cc4F)n(C)c(=O)c(C)c32)c1 [Trametinib]; details: max 1 µM
Summary of the method: as §1

Dasatinib = compound: CC1=C(C(=CC=C1)Cl)NC(=O)C2=CN=C(S2)NC3=CC(=NC(=N3)C)N4CCN(CC4)CCO [Dasatinib]; details: max 2 µM
Summary of the method: as §1

AZD1775 = compound: C=CCn1c(=O)c2cnc(Nc3ccc(N4CCN(C)CC4)cc3)nc2n1-c1cccc(C(C)(C)O)n1 [AZD1775]; details: max 3 µM
Summary of the method: as §1

Alisertib = compound: COc1cc(Nc2ncc3c(n2)-c2ccc(Cl)cc2C(c2c(F)cccc2OC)=NC3)ccc1C(=O)O [Alisertib]; details: max 10 µM
Summary of the method: as §1

Taselisib = compound: Cc1nc(-c2cn3c(n2)-c2ccc(-c4cnn(C(C)(C)C(N)=O)c4)cc2OCC3)n(C(C)C)n1 [Taselisib]; details: max 10 µM
Summary of the method: as §1

Capivasertib = compound: C1CN(CCC1(C(=O)N[C@@H](CCO)C2=CC=C(C=C2)Cl)N)C3=NC=NC4=C3C=CN4 [Capivasertib]
Summary of the method: as §1

Palbociclib = compound: CC(=O)c1c(C)c2cnc(Nc3ccc(N4CCNCC4)cn3)nc2n(C2CCCC2)c1=O [Palbociclib]; details: max 10 µM
Summary of the method: as §1

AZD6738 = compound: C[C@@H]1COCCN1C2=NC(=NC(=C2)C3(CC3)[S@](=N)(=O)C)C4=C5C=CNC5=NC=C4 [AZD6738]; details: max 10 µM
Summary of the method: as §1

AZD4320 = compound: CN(CC[C@H](CSC1=CC=CC=C1)NC2=C(C=C(C=C2)S(=O)(=O)NC(=O)C3=CC=C(C=C3)N4CCC(CC4)[C@H](C5=CC=CC=C5C6=CC=C(C=C6)Cl)O)S(=O)(=O)C(F)(F)F)CCO [AZD4320]; details: max 1 µM
Summary of the method: as §1

AZD7648 = compound: Cc1cc2ncnn2cc1Nc1ncc2c(n1)n(C1CCOCC1)c(=O)n2C [AZD7648]; details: max 10 µM
Summary of the method: as §1

Olaparib = compound: O=C(c1cc(Cc2n[nH]c(=O)c3ccccc23)ccc1F)N1CCN(C(=O)C2CC2)CC1 [Olaparib]; details: max 10 µM
Summary of the method: as §1

Venetoclax = compound: CC1(C)CCC(CN2CCN(c3ccc(C(=O)NS(=O)(=O)c4ccc(NCC5CCOCC5)c([N+](=O)[O-])c4)c(Oc4cnc5[nH]ccc5c4)c3)CC2)=C(c2ccc(Cl)cc2)C1 [Venetoclax]; details: max 1 µM
Summary of the method: as §1

AZD0156 = compound: CN(C)CCCOc1ccc(-c2ccc3ncc4c(c3c2)n(C2CCOCC2)c(=O)n4C)cn1 [AZD0156]; details: max 3 µM
Summary of the method: as §1

Doxorubicin = compound: COc1cccc2c1C(=O)c1c(O)c3c(c(O)c1C2=O)C[C@@](O)(C(=O)CO)C[C@@H]3O[C@H]1C[C@H](N)[C@H](O)[C@H](C)O1 [Doxorubicin]; details: max 1 µM
Summary of the method: as §1

Lapatinib = compound: CS(=O)(=O)CCNCc1ccc(-c2ccc3ncnc(Nc4ccc(OCc5cccc(F)c5)c(Cl)c4)c3c2)o1 [Lapatinib]; details: max 10 µM
Summary of the method: as §1

Cell Line	IC50, cell viability 72 h (AZD8186) [µM]	IC50, cell viability 72 h (Savolitinib) [µM]	IC50, cell viability 72 h (Prexasertib) [µM]	IC50, cell viability 72 h (AZD2811) [µM]	IC50, cell viability 72 h (AZD5991) [µM]	IC50, cell viability 72 h (Selumetinib; max 10 µM) [µM]	IC50, cell viability 72 h (SG3199) [µM]	IC50, cell viability 72 h (Crizotinib) [µM]	IC50, cell viability 72 h (AZD1390) [µM]	IC50, cell viability 72 h (Gefitinib) [µM]	IC50, cell viability 72 h (SN-38) [µM]	IC50, cell viability 72 h (AZD5153) [µM]	IC50, cell viability 72 h (Trametinib) [µM]	IC50, cell viability 72 h (Dasatinib) [µM]	IC50, cell viability 72 h (AZD1775) [µM]	IC50, cell viability 72 h (Alisertib) [µM]	IC50, cell viability 72 h (Taselisib) [µM]	IC50, cell viability 72 h (Capivasertib; max 10 µM) [µM]	IC50, cell viability 72 h (Palbociclib) [µM]	IC50, cell viability 72 h (AZD6738) [µM]	IC50, cell viability 72 h (AZD4320) [µM]	IC50, cell viability 72 h (AZD7648) [µM]	IC50, cell viability 72 h (Olaparib) [µM]	IC50, cell viability 72 h (Venetoclax) [µM]	IC50, cell viability 72 h (AZD0156) [µM]	IC50, cell viability 72 h (Doxorubicin) [µM]	IC50, cell viability 72 h (Lapatinib) [µM]	IC50, cell viability 72 h (Selumetinib; max 3 µM) [µM]	IC50, cell viability 72 h (Capivasertib; max 3 µM) [µM]
C-4-I (Cervical Carcinoma)	> 3	> 1	0.0185	> 1	0.288	> 10	> 0.001	> 10	> 0.3	> 10	0.041	0.889	0.773	> 2	0.195	3.42	2.55	> 10	> 10	2.52	> 1	> 10	> 10	> 1	> 3	0.302	7.23	–	–
HOP-62 (Lung Adenocarcinoma)	> 3	> 1	0.225	> 1	> 1	8.92	> 0.001	> 10	> 0.3	> 10	0.101	0.243	0.2	0.956	> 3	8.66	> 10	> 10	> 10	> 10	> 1	> 10	> 10	> 1	> 3	> 1	> 10	–	–
JVM-3 (B-Cell Non-Hodgkin's Lymphoma)	> 3	–	0.00734	> 1	> 1	–	> 0.001	–	–	–	0.00205	–	0.27	–	0.117	1.6	1.61	–	–	4.32	0.0809	> 10	> 10	> 1	> 3	0.0843	–	1.98	> 3
KMOE-2 (Acute Myeloid Leukemia)	> 3	> 1	0.0558	> 1	0.773	0.104	> 0.001	> 10	> 0.3	> 10	0.04	0.102	0.00174	> 2	0.411	0.465	9.87	> 10	> 10	8.12	0.409	> 10	> 10	> 1	> 3	0.881	> 10	–	–
NCI-H1915 (Non-Small Cell Lung Carcinoma)	> 3	> 1	0.335	> 1	> 1	3.91	> 0.001	> 10	> 0.3	> 10	0.0616	> 1	0.0347	0.567	2.87	5.15	> 10	> 10	> 10	> 10	> 1	> 10	> 10	> 1	> 3	> 1	> 10	–	–
NEC8 (Other Solid Carcinomas)	> 3	> 1	0.0357	> 1	> 1	> 10	> 0.001	> 10	> 0.3	> 10	0.0215	0.226	> 1	> 2	0.558	> 10	> 10	> 10	> 10	5.76	> 1	> 10	> 10	> 1	> 3	0.595	> 10	–	–
OE19 (Esophageal Adenocarcinoma)	> 3	> 1	0.105	0.39	> 1	> 10	> 0.001	3.81	> 0.3	1.36	> 0.3	0.907	> 1	> 2	> 3	0.167	2.18	> 10	> 10	4.05	> 1	> 10	> 10	> 1	> 3	> 1	0.287	–	–
